PubChem BioAssay (NCI)
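Briefly, cells in 96-well plates were exposed to five compound concentrations for 48 h, and endpoints were estimated by linear interpolation. TGI denotes the concentration required for complete inhibition of growth.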

Columns and labels:
Assay in all cases: growth of human tumour cells (NCI), 48 h
[1] = test system: UACC-62 melanoma
[2] = test system: HL-60(TB) leukemia
[3] = test system: SK-MEL-28 melanoma
[4] = test system: SNB-78 CNS
[5] = test system: CAKI-1 renal
[6] = test system: RPMI-8226 leukemia
[7] = test system: NCI-H23 lung
[8] = test system: OVCAR-8 ovarian
[9] = test system: 786-0 renal
[10] = test system: SF-539 CNS
[11] = test system: OVCAR-3 ovarian
[12] = test system: HOP-92 NSCLC
[13] = test system: CCRF-CEM leukemia
[14] = test system: SR leukemia
[15] = test system: RXF 393 renal
[16] = test system: HCT-15 colon
[17] = test system: XF 498 CNS
[18] = test system: HOP-18 NSCLC
[19] = test system: HOP-62 NSCLC
[20] = test system: SF-295 CNS
[21] = test system: MALME-3M melanoma
[22] = test system: UO-31 renal
[23] = test system: SNB-75 CNS
[24] = test system: DMS 273 small cell lung
[25] = test system: HT29 colon
[26] = test system: UACC-257 melanoma
[27] = test system: NCI-H226 lung
[28] = test system: EKVX NSCLC
[29] = test system: A549 NSCLC
[30] = test system: DLD-1 colon
[31] = test system: IGROV1 ovarian
[32] = test system: K-562 leukemia
[33] = test system: OVCAR-5 ovarian
[34] = test system: SNB-19 CNS
[35] = test system: DMS 114 small cell lung
[36] = test system: HCT-116 colon
[37] = test system: SK-MEL-2 melanoma
[38] = test system: OVCAR-4 ovarian
[39] = test system: MOLT-4 leukemia
[40] = test system: TK-10 renal
[41] = test system: KM12 colon
[42] = test system: SN12C renal
[43] = test system: A498 renal
[44] = test system: M19-MEL melanoma
[45] = test system: SW-620 colon
[46] = test system: ACHN renal
[47] = test system: KM20L2 colon
[48] = test system: LXFL 529 NSCLC
[49] = test system: SF-268 CNS
[50] = test system: M14 melanoma
[51] = test system: NCI-H460 lung
[52] = test system: HCC-2998 colon
[53] = test system: SK-MEL-5 melanoma
[54] = test system: LOX IMVI melanoma
[55] = test system: COLO 205 colon
[56] = test system: NCI-H522 lung
[57] = test system: SK-OV-3 ovarian
[58] = test system: U251 CNS

Which results are given for `CC(=O)N(C)c1ccc2ncccc2c1[N+](=O)[O-]`?
TGI [1]: > 100 µM; TGI [2]: > 100 µM; TGI [3]: > 100 µM; TGI [4]: > 100 µM; TGI [5]: > 100 µM; TGI [6]: > 100 µM; TGI [7]: > 100 µM; TGI [8]: > 100 µM; TGI [9]: > 100 µM; TGI [10]: > 100 µM; TGI [11]: > 100 µM; TGI [12]: > 100 µM; TGI [13]: > 100 µM; TGI [14]: > 100 µM; TGI [15]: > 100 µM; TGI [16]: > 100 µM; TGI [17]: > 100 µM; TGI [18]: > 100 µM; TGI [19]: > 100 µM; TGI [20]: > 100 µM; TGI [21]: > 100 µM; TGI [22]: > 100 µM; TGI [23]: > 100 µM; TGI [24]: > 100 µM; TGI [25]: > 100 µM; TGI [26]: > 100 µM; TGI [27]: > 100 µM; TGI [28]: > 100 µM; TGI [29]: > 100 µM; TGI [30]: > 100 µM; TGI [31]: > 100 µM; TGI [32]: > 100 µM; TGI [33]: > 100 µM; TGI [34]: > 100 µM; TGI [35]: > 100 µM; TGI [36]: > 100 µM; TGI [37]: > 100 µM; TGI [38]: > 100 µM; TGI [39]: > 100 µM; TGI [40]: > 100 µM; TGI [41]: > 100 µM; TGI [42]: > 100 µM; TGI [43]: > 100 µM; TGI [44]: > 100 µM; TGI [45]: > 100 µM; TGI [46]: > 100 µM; TGI [47]: > 100 µM; TGI [48]: > 100 µM; TGI [49]: > 100 µM; TGI [50]: > 100 µM; TGI [51]: > 100 µM; TGI [52]: > 100 µM; TGI [53]: > 100 µM; TGI [54]: > 100 µM

With `CCOC(=O)C(Cc1ccc([N+](=O)[O-])cc1)NC(=O)CC1c2ccccc2-c2ccccc21` (stereo not given) as the compound, how does the TGI [1] read?
Its TGI is greater than 100 µM.

And the TGI [2]?
The TGI was greater than 100 µM.

What about the TGI [3] of the same compound?
Its TGI is greater than 100 µM.

What about the TGI [4] of the same compound?
Its TGI is 65.3 µM.

And the TGI [6]?
Its TGI is greater than 100 µM.

And the TGI [7]?
Its TGI is greater than 100 µM.

What about the TGI [8] of the same compound?
The TGI was greater than 100 µM.

What about the TGI [9] of the same compound?
Its TGI is greater than 100 µM.

And the TGI [55]?
Its TGI is greater than 100 µM.

What about the TGI [56] of the same compound?
Its TGI is greater than 100 µM.

What about the TGI [10] of the same compound?
Its TGI is 77.4 µM.

What about the TGI [11] of the same compound?
The TGI was greater than 100 µM.

And the TGI [12]?
Its TGI is 56.5 µM.

And the TGI [13]?
The TGI was greater than 100 µM.

What about the TGI [14] of the same compound?
Its TGI is greater than 100 µM.

And the TGI [15]?
Its TGI is 41.6 µM.

And the TGI [16]?
Its TGI is greater than 100 µM.

What about the TGI [17] of the same compound?
Its TGI is 53.6 µM.

And the TGI [18]?
The TGI was greater than 100 µM.

And the TGI [19]?
The TGI was greater than 100 µM.

What about the TGI [20] of the same compound?
The TGI was greater than 100 µM.

And the TGI [21]?
The TGI was 42.3 µM.

And the TGI [22]?
Its TGI is greater than 100 µM.

And the TGI [23]?
The TGI was 68.8 µM.

What about the TGI [24] of the same compound?
The TGI was greater than 100 µM.

What about the TGI [25] of the same compound?
Its TGI is greater than 100 µM.

What about the TGI [26] of the same compound?
Its TGI is 91.5 µM.

And the TGI [27]?
Its TGI is greater than 100 µM.

What about the TGI [28] of the same compound?
The TGI was greater than 100 µM.

And the TGI [29]?
Its TGI is greater than 100 µM.

What about the TGI [30] of the same compound?
The TGI was greater than 100 µM.

And the TGI [31]?
The TGI was greater than 100 µM.

And the TGI [32]?
Its TGI is greater than 100 µM.

And the TGI [34]?
The TGI was greater than 100 µM.

And the TGI [35]?
Its TGI is greater than 100 µM.

What about the TGI [36] of the same compound?
The TGI was greater than 100 µM.

And the TGI [37]?
Its TGI is greater than 100 µM.

What about the TGI [38] of the same compound?
Its TGI is greater than 100 µM.

And the TGI [39]?
Its TGI is greater than 100 µM.

And the TGI [40]?
Its TGI is greater than 100 µM.

What about the TGI [41] of the same compound?
Its TGI is greater than 100 µM.

And the TGI [42]?
Its TGI is greater than 100 µM.

What about the TGI [43] of the same compound?
Its TGI is greater than 100 µM.

What about the TGI [44] of the same compound?
Its TGI is 38.9 µM.

And the TGI [45]?
The TGI was greater than 100 µM.

And the TGI [57]?
The TGI was greater than 100 µM.

And the TGI [46]?
The TGI was 45.1 µM.

And the TGI [47]?
The TGI was greater than 100 µM.

And the TGI [48]?
The TGI was greater than 100 µM.

And the TGI [58]?
Its TGI is greater than 100 µM.

What about the TGI [49] of the same compound?
Its TGI is greater than 100 µM.

And the TGI [50]?
The TGI was 57.9 µM.

And the TGI [51]?
The TGI was greater than 100 µM.

And the TGI [52]?
The TGI was greater than 100 µM.

What about the TGI [54] of the same compound?
The TGI was greater than 100 µM.

What does the source list for `Cc1cccc(-c2nnc3s/c(=C\c4ccc5c(c4)OCO5)c(=O)n23)c1`?
TGI [1]: > 100 µM; TGI [2]: > 100 µM; TGI [3]: > 100 µM; TGI [4]: > 100 µM; TGI [5]: > 100 µM; TGI [6]: > 100 µM; TGI [7]: > 100 µM; TGI [8]: > 100 µM; TGI [9]: > 100 µM; TGI [55]: > 100 µM; TGI [56]: > 100 µM; TGI [10]: > 100 µM; TGI [11]: > 100 µM; TGI [12]: > 100 µM; TGI [13]: > 100 µM; TGI [15]: > 100 µM; TGI [16]: > 100 µM; TGI [17]: > 100 µM; TGI [18]: > 100 µM; TGI [19]: > 100 µM; TGI [20]: > 100 µM; TGI [21]: > 100 µM; TGI [22]: > 100 µM; TGI [23]: > 100 µM; TGI [24]: > 100 µM; TGI [26]: > 100 µM; TGI [27]: > 100 µM; TGI [28]: > 100 µM; TGI [29]: > 100 µM; TGI [30]: > 100 µM; TGI [31]: > 100 µM; TGI [32]: > 100 µM; TGI [33]: > 100 µM; TGI [34]: > 100 µM; TGI [35]: > 100 µM; TGI [36]: > 100 µM; TGI [37]: > 100 µM; TGI [38]: > 100 µM; TGI [39]: > 100 µM; TGI [40]: > 100 µM; TGI [41]: > 100 µM; TGI [42]: > 100 µM; TGI [43]: > 100 µM; TGI [44]: > 100 µM; TGI [45]: > 100 µM; TGI [57]: > 100 µM; TGI [46]: > 100 µM; TGI [47]: > 100 µM; TGI [48]: > 100 µM; TGI [58]: > 100 µM; TGI [49]: > 100 µM; TGI [50]: > 100 µM; TGI [51]: > 100 µM; TGI [52]: > 100 µM; TGI [53]: > 100 µM; TGI [54]: > 100 µM
